Assay results taken from ChEMBL document CHEMBL3390848, “Affinity selection and sequence-activity relationships of HIV-1 membrane fusion inhibitors directed at the drug-resistant variants” (Medchemcomm, 2010).
Residues, ends and D or L forms follow the SMILES beside them.

What was measured:
[1] = test system: Human immunodeficiency virus 1; assay: Antiviral activity against HIV1 NL4-3 harboring gp41 D36G mutant infected in human HeLa cells expressing CD4-LTR-beta-gal assessed as inhibition of viral replication after 48 hrs by MAGI assay; format: functional, organism-based
[2] = test system: Human immunodeficiency virus 1; assay: Thermal stability of HIV1 envelope glycoprotein gp41 His-tagged N-terminal heptad repeat N36-drug complex assessed as thermal unfolding transition state by measuring molar ellipticity at 4 to 90 degC by circular dichroic spectra analysis
[3] = test system: Human immunodeficiency virus 1; assay: Binding affinity to HIV1 His-tagged N-terminal heptad repeat of envelope glycoprotein gp41 assessed as recovery of N36-drug complex after 2 hrs by LC-MS analysis; parameters: concentration or dose not given beside the values
[4] = test system: Human immunodeficiency virus 1; assay: Binding affinity to HIV1 His-tagged N-terminal heptad repeat of envelope glycoprotein gp41 assessed as recovery of N54-drug complex after 2 hrs by LC-MS analysis; parameters: concentration or dose not given beside the values
[5] = test system: Human immunodeficiency virus 1; assay: Thermal stability of HIV1 envelope glycoprotein gp41 His-tagged N-terminal heptad repeat N54-drug complex assessed as thermal unfolding transition state by measuring molar ellipticity at 4 to 90 degC by circular dichroic spectra analysis

## CC[C@H](C)[C@H](NC(=O)[C@H](CC(C)C)NC(=O)[C@H](CCC(=O)O)NC(=O)[C@H](CCC(=O)O)NC(=O)[C@@H](NC(=O)[C@H](CCCCN)NC(=O)[C@H](CCCCN)NC(=O)[C@@H](NC(=O)[C@H](Cc1ccc(O)cc1)NC(=O)[C@H](CCC(=O)O)NC(=O)[C@H](CCC(=O)O)NC(=O)[C@@H](NC(=O)[C@H](CCCCN)NC(=O)[C@H](CCCCN)NC(=O)[C@H](CC(=O)O)NC(=O)[C@H](Cc1c[nH]c2ccccc12)NC(=O)[C@H](CCC(=O)O)NC(=O)[C@H](CCC(=O)O)NC(=O)[C@H](Cc1c[nH]c2ccccc12)NC(C)=O)[C@@H](C)CC)[C@@H](C)O)[C@@H](C)CC)C(=O)N[C@@H](CCCCN)C(=O)N[C@@H](CCCCN)C(=O)N[C@@H](CO)C(=O)N[C@@H](CCC(=O)O)C(=O)N[C@@H](CCC(=O)O)C(=O)N[C@@H](Cc1cnc[nH]1)C(=O)N[C@@H](CCC(N)=O)C(=O)N[C@@H](CCCCN)C(=O)N[C@@H](CCCCN)C(=O)N[C@@H](CC(N)=O)C(=O)N[C@@H](CCC(=O)O)C(=O)N[C@@H](CCC(=O)O)C(=O)N[C@@H](CCC(=O)O)C(=O)N[C@@H](CC(C)C)C(=O)N[C@@H](CCCCN)C(=O)N[C@@H](CCCCN)C(N)=O (Ac-WEEWDKKIEEYTKKIEELIKKSEEHQKKNEEELKK-NH2)
[1]
  EC50: 2 nM
[2]
  Tm: 72.6 °C
[3]
  Activity: 4.3%

## CC[C@H](C)[C@H](NC(=O)[C@H](CC(C)C)NC(=O)[C@H](CCC(=O)O)NC(=O)[C@H](CCC(=O)O)NC(=O)[C@@H](NC(=O)[C@H](CCCCN)NC(=O)[C@H](CCCCN)NC(=O)[C@@H](NC(=O)[C@H](Cc1ccc(O)cc1)NC(=O)[C@H](CCC(=O)O)NC(=O)[C@H](CCC(=O)O)NC(=O)[C@@H](NC(=O)[C@H](CCCCN)NC(=O)[C@H](CCCCN)NC(=O)[C@H](CC(=O)O)NC(=O)[C@H](Cc1c[nH]c2ccccc12)NC(=O)[C@H](CCC(=O)O)NC(=O)[C@H](CCC(=O)O)NC(=O)[C@H](Cc1c[nH]c2ccccc12)NC(C)=O)[C@@H](C)CC)[C@@H](C)O)[C@@H](C)CC)C(=O)N[C@@H](CCCCN)C(=O)N[C@@H](CCCCN)C(=O)N[C@@H](CO)C(=O)N[C@@H](CCC(=O)O)C(=O)N[C@@H](CCC(=O)O)C(=O)N[C@@H](Cc1ccccc1)C(=O)N[C@@H](CCC(N)=O)C(=O)N[C@@H](CCCCN)C(=O)N[C@@H](CCCCN)C(=O)N[C@@H](CC(N)=O)C(=O)N[C@@H](CCC(=O)O)C(=O)N[C@@H](CCC(=O)O)C(=O)N[C@@H](CCC(=O)O)C(=O)N[C@@H](CC(C)C)C(=O)N[C@@H](CCCCN)C(=O)N[C@@H](CCCCN)C(N)=O (Ac-WEEWDKKIEEYTKKIEELIKKSEEFQKKNEEELKK-NH2)
[1]
  EC50: 2.6 nM
[2]
  Tm: 76.7 °C
[3]
  Activity: 5.7%

## CC[C@H](C)[C@H](NC(=O)[C@H](CC(C)C)NC(=O)[C@H](CCC(=O)O)NC(=O)[C@H](CCC(=O)O)NC(=O)[C@@H](NC(=O)[C@H](CCCCN)NC(=O)[C@H](CCCCN)NC(=O)[C@@H](NC(=O)[C@H](Cc1ccc(O)cc1)NC(=O)[C@H](CCC(=O)O)NC(=O)[C@H](CCC(=O)O)NC(=O)[C@@H](NC(=O)[C@H](CCCCN)NC(=O)[C@H](CCCCN)NC(=O)[C@H](CC(=O)O)NC(=O)[C@H](Cc1c[nH]c2ccccc12)NC(=O)[C@H](CCC(=O)O)NC(=O)[C@H](CCC(=O)O)NC(=O)[C@H](Cc1c[nH]c2ccccc12)NC(C)=O)[C@@H](C)CC)[C@@H](C)O)[C@@H](C)CC)C(=O)N[C@@H](CCCCN)C(=O)N[C@@H](CCCCN)C(=O)N[C@@H](CO)C(=O)N[C@@H](CCC(=O)O)C(=O)N[C@@H](CCC(=O)O)C(=O)N[C@@H](CC(=O)O)C(=O)N[C@@H](CCC(N)=O)C(=O)N[C@@H](CCCCN)C(=O)N[C@@H](CCCCN)C(=O)N[C@@H](CC(N)=O)C(=O)N[C@@H](CCC(=O)O)C(=O)N[C@@H](CCC(=O)O)C(=O)N[C@@H](CCC(=O)O)C(=O)N[C@@H](CC(C)C)C(=O)N[C@@H](CCCCN)C(=O)N[C@@H](CCCCN)C(N)=O (Ac-WEEWDKKIEEYTKKIEELIKKSEEDQKKNEEELKK-NH2)
[1]
  EC50: 2.9 nM
[2]
  Tm: 75.1 °C
[3]
  Activity: 4.5%

## CC[C@H](C)[C@H](NC(=O)[C@H](CCC(=O)O)NC(=O)[C@H](CCC(=O)O)NC(=O)[C@H](CO)NC(=O)[C@H](CCCCN)NC(=O)[C@H](CCCCN)NC(=O)[C@@H](NC(=O)[C@H](CC(C)C)NC(=O)[C@H](CCC(=O)O)NC(=O)[C@H](CCC(=O)O)NC(=O)[C@@H](NC(=O)[C@H](CCCCN)NC(=O)[C@H](CCCCN)NC(=O)[C@@H](NC(=O)[C@H](Cc1ccc(O)cc1)NC(=O)[C@H](CCC(=O)O)NC(=O)[C@H](CCC(=O)O)NC(=O)[C@@H](NC(=O)[C@H](CCCCN)NC(=O)[C@H](CCCCN)NC(=O)[C@H](CC(=O)O)NC(=O)[C@H](Cc1c[nH]c2ccccc12)NC(=O)[C@H](CCC(=O)O)NC(=O)[C@H](CCC(=O)O)NC(=O)[C@H](Cc1c[nH]c2ccccc12)NC(C)=O)[C@@H](C)CC)[C@@H](C)O)[C@@H](C)CC)[C@@H](C)CC)C(=O)N[C@@H](CCC(N)=O)C(=O)N[C@@H](CCCCN)C(=O)N[C@@H](CCCCN)C(=O)N[C@@H](CC(N)=O)C(=O)N[C@@H](CCC(=O)O)C(=O)N[C@@H](CCC(=O)O)C(=O)N[C@@H](CCC(=O)O)C(=O)N[C@@H](CC(C)C)C(=O)N[C@@H](CCCCN)C(=O)N[C@@H](CCCCN)C(N)=O (Ac-WEEWDKKIEEYTKKIEELIKKSEEIQKKNEEELKK-NH2)
[1]
  EC50: 2.9 nM
[2]
  Tm: 79.7 °C
[3]
  Activity: 8.2%

## CC[C@H](C)[C@H](NC(=O)[C@H](CC(C)C)NC(=O)[C@H](CCC(=O)O)NC(=O)[C@H](CCC(=O)O)NC(=O)[C@@H](NC(=O)[C@H](CCCCN)NC(=O)[C@H](CCCCN)NC(=O)[C@@H](NC(=O)[C@H](Cc1ccc(O)cc1)NC(=O)[C@H](CCC(=O)O)NC(=O)[C@H](CCC(=O)O)NC(=O)[C@@H](NC(=O)[C@H](CCCCN)NC(=O)[C@H](CCCCN)NC(=O)[C@H](CC(=O)O)NC(=O)[C@H](Cc1c[nH]c2ccccc12)NC(=O)[C@H](CCC(=O)O)NC(=O)[C@H](CCC(=O)O)NC(=O)[C@H](Cc1c[nH]c2ccccc12)NC(C)=O)[C@@H](C)CC)[C@@H](C)O)[C@@H](C)CC)C(=O)N[C@@H](CCCCN)C(=O)N[C@@H](CCCCN)C(=O)N[C@@H](CO)C(=O)N[C@@H](CCC(=O)O)C(=O)N[C@@H](CCC(=O)O)C(=O)NCC(=O)N[C@@H](CCC(N)=O)C(=O)N[C@@H](CCCCN)C(=O)N[C@@H](CCCCN)C(=O)N[C@@H](CC(N)=O)C(=O)N[C@@H](CCC(=O)O)C(=O)N[C@@H](CCC(=O)O)C(=O)N[C@@H](CCC(=O)O)C(=O)N[C@@H](CC(C)C)C(=O)N[C@@H](CCCCN)C(=O)N[C@@H](CCCCN)C(N)=O (Ac-WEEWDKKIEEYTKKIEELIKKSEEGQKKNEEELKK-NH2)
[1]
  EC50: 2.3 nM
[2]
  Tm: 71 °C
[3]
  Activity: 3.8%

## CC[C@H](C)[C@H](NC(=O)[C@H](CC(C)C)NC(=O)[C@H](CCC(=O)O)NC(=O)[C@H](CCC(=O)O)NC(=O)[C@@H](NC(=O)[C@H](CC(C)C)NC(=O)[C@H](CO)NC(=O)[C@@H](NC(=O)[C@H](Cc1ccc(O)cc1)NC(C)=O)[C@@H](C)O)[C@@H](C)CC)C(=O)N[C@@H](CCCCN)C(=O)N[C@@H](CCCCN)C(=O)N[C@@H](CO)C(=O)N[C@@H](CCC(=O)O)C(=O)N[C@@H](CCC(=O)O)C(=O)N[C@H](C(=O)N[C@@H](CCC(N)=O)C(=O)N[C@@H](CCCCN)C(=O)N[C@@H](CCCCN)C(=O)N[C@@H](CC(N)=O)C(=O)N[C@@H](CCC(=O)O)C(=O)N[C@@H](CCC(=O)O)C(=O)N[C@@H](CCC(=O)O)C(=O)N[C@@H](CC(C)C)C(=O)N[C@@H](CCCCN)C(=O)N[C@@H](CCCCN)C(=O)N[C@@H](CC(C)C)C(=O)N[C@@H](CCC(=O)O)C(=O)N[C@@H](CCC(=O)O)C(=O)N[C@@H](Cc1c[nH]c2ccccc12)C(=O)N[C@@H](C)C(=O)N[C@@H](CCCCN)C(=O)N[C@@H](CCCCN)C(=O)N[C@@H](Cc1c[nH]c2ccccc12)C(=O)N[C@@H](CC(N)=O)C(=O)N[C@@H](Cc1c[nH]c2ccccc12)C(=O)N[C@@H](Cc1ccccc1)C(N)=O)C(C)C (Ac-YTSLIEELIKKSEEVQKKNEEELKKLEEWAKKWNWF-NH2)
[1]
  EC50: 2.9 nM
[4]
  Activity: 6.1%
[5]
  Tm: 70.5 °C

## CC[C@H](C)[C@H](NC(=O)[C@H](CC(C)C)NC(=O)[C@H](CCC(=O)O)NC(=O)[C@H](CCC(=O)O)NC(=O)[C@@H](NC(=O)[C@H](CC(C)C)NC(=O)[C@H](CO)NC(=O)[C@@H](NC(=O)[C@H](Cc1ccc(O)cc1)NC(C)=O)[C@@H](C)O)[C@@H](C)CC)C(=O)N[C@@H](CCCCN)C(=O)N[C@@H](CCCCN)C(=O)N[C@@H](CO)C(=O)N[C@@H](CCC(=O)O)C(=O)N[C@@H](CCC(=O)O)C(=O)N[C@@H](CO)C(=O)N[C@@H](CCC(N)=O)C(=O)N[C@@H](CCCCN)C(=O)N[C@@H](CCCCN)C(=O)N[C@@H](CC(N)=O)C(=O)N[C@@H](CCC(=O)O)C(=O)N[C@@H](CCC(=O)O)C(=O)N[C@@H](CCC(=O)O)C(=O)N[C@@H](CC(C)C)C(=O)N[C@@H](CCCCN)C(=O)N[C@@H](CCCCN)C(=O)N[C@@H](CC(C)C)C(=O)N[C@@H](CCC(=O)O)C(=O)N[C@@H](CCC(=O)O)C(=O)N[C@@H](Cc1c[nH]c2ccccc12)C(=O)N[C@@H](C)C(=O)N[C@@H](CCCCN)C(=O)N[C@@H](CCCCN)C(=O)N[C@@H](Cc1c[nH]c2ccccc12)C(=O)N[C@@H](CC(N)=O)C(=O)N[C@@H](Cc1c[nH]c2ccccc12)C(=O)N[C@@H](Cc1ccccc1)C(N)=O (Ac-YTSLIEELIKKSEESQKKNEEELKKLEEWAKKWNWF-NH2)
[1]
  EC50: 4.6 nM
[4]
  Activity: 3.2%
[5]
  Tm: 66.7 °C
